This note sets out measurements from ChEMBL document CHEMBL6121021, “Design and Synthesis of Topoisomerases-Histone Deacetylase Dual Targeted Quinoline-Bridged Hydroxamates as Anticancer Agents” (J Med Chem, 2025).

Molecules are shown by their SMILES. The source made the active and inactive calls. The rule behind the calls is not given here. Some results are limits rather than exact numbers.

Experiment [1] addresses DNA topoisomerase 2-alpha (Homo sapiens, UniProt P11388). The experiment is described as follows: Inhibition of human Topo II-alpha-mediated decatenation of kDNA at 100 uM incubated for 30 mins.
Experiment [2] addresses T1, DNA topoisomerase 1 (Homo sapiens) (UniProt P11387).
T1 sequence (whole entry): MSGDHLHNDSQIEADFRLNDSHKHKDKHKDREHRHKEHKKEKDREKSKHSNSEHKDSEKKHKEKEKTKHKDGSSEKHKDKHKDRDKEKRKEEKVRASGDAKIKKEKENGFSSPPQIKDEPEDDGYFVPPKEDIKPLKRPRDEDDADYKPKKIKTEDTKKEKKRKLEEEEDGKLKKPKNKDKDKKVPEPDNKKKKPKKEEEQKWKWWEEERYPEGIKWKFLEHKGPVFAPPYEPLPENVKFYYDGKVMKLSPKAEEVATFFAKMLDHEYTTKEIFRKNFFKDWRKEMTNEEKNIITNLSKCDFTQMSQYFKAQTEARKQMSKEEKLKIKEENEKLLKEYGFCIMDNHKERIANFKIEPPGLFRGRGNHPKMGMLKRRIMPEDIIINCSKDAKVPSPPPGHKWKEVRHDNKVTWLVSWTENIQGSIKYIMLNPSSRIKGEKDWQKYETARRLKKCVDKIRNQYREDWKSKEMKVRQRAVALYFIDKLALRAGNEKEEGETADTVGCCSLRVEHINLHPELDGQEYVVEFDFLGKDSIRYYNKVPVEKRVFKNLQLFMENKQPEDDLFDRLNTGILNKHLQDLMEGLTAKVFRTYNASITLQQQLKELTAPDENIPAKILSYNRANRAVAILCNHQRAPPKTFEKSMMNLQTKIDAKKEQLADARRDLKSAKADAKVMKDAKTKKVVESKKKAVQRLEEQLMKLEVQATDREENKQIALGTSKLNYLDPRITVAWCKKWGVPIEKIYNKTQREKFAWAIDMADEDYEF
The experiment is described as follows: Inhibition of human Topo I-mediated relaxation of supercoiled DNA preincubated for 30 mins followed by proteinase K addition measured after 30 mins by gel electrophoresis. To be noted: time 60.0 min.

The next experiment concerns Supercoiled DNA. The experiment can be described thus: Binding affinity to supercoiled DNA (unknown origin) assessed as DNA intercalation measured after 30 mins by gel electrophoresis. Format: nucleic-acid assay.
In another experiment the target is Histone deacetylase 1 (Homo sapiens, UniProt Q13547). The experiment is described as follows: Inhibition of HDAC1 extracted from human A549 nucleus incubated for 1 hr by fluorometric assay. Format: cell-free.
Sequence of Histone deacetylase 1 (Q13547 whole entry): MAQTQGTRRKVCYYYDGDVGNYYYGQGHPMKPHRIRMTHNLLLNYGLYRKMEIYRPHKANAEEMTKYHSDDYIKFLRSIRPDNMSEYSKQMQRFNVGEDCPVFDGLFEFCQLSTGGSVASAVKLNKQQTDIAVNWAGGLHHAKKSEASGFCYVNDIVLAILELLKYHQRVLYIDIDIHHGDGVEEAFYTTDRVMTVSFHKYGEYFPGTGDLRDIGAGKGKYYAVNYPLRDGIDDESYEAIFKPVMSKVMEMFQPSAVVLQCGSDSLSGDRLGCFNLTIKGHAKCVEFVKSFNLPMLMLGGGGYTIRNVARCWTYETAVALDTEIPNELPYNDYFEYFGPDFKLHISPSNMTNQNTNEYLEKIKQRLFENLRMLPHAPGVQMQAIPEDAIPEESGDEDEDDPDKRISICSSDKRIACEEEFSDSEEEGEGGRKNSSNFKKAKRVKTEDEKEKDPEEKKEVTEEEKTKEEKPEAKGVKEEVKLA
The target of a further experiment is T2, Histone deacetylase 8 (Homo sapiens, UniProt Q9BY41).
T2 sequence (Q9BY41 whole entry): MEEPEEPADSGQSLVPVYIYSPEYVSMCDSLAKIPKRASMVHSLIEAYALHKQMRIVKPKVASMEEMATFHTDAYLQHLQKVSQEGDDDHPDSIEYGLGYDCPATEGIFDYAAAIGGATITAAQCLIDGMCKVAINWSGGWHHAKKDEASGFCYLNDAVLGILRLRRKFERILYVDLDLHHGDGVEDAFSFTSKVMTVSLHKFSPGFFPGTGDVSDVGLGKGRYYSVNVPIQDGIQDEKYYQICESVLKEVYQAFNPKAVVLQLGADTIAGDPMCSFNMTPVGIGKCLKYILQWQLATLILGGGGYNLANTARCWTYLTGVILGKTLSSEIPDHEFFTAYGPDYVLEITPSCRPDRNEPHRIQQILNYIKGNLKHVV
The experiment is described as follows: Inhibition of HDAC8 (unknown origin) by fluorometric assay.

The test system of the next experiment is NCI-H1299. The experiment is described as follows: cells. Particulars: Homo sapiens, NCI-H1299, 48 h. It counts as functional, cell-based.
The subject of experiment [3] is MDA-MB-231. The experiment can be described thus: cells. It counts as functional, cell-based. To be noted: Homo sapiens, MDA-MB-231, 48 h.
For a further experiment, the system named is MCF7. The experiment can be described thus: cells. It counts as functional, cell-based. To be noted: Homo sapiens, MCF7, 48 h.
For a further experiment, the system named is HT-29. The experiment is described as follows: cells. To be noted: Homo sapiens, HT-29, 48 h. It counts as functional, cell-based.
Experiment [4] has as its system A549. The experiment can be described thus: Anti-cancer activity against human A549 3D cell culture model assessed as inhibition of 3D culture initiation at sub- IC50 incubated for 21 days with replacement of medium containing compound on every seventh day. It counts as functional, cell-based. To be noted: time 21.0 day.
The test system of experiment [5] is A549. The experiment is described as follows: Anti-cancer activity against human A549 3D cell culture model at sub- IC50 incubated for 17 days with replacement of medium containing compound on every third day. It counts as functional, cell-based. To be noted: time 17.0 day.
The subject of experiment [6] is A549. The experiment is described as follows: Induction of ROS generation in human A549 cells incubated for 48 hrs by DCFH-DA staining based analysis. Format: functional, cell-based.
Experiment [7] has as its system A549. The experiment is described as follows: Induction of ROS generation in human A549 cells incubated for 48 hrs by Cell Rox red staining based flow cytometry. Format: functional. (In general: Flow cytometry measures light scatter and fluorescence of single cells or particles in a stream.)
The test system of experiment [8] is A549. The experiment is described as follows: Effect on mitochondrial membrane permeability in human A549 cells assessed as decrease in red to green fluorescence ratio at sub-IC50 incubated for 48 hrs by JC-1 staining based analysis. Format: functional, cell-based.
Experiment [9] concerns MDA-MB-231. The experiment is described as follows: Anti-cancer activity against human MDA-MB-231 cells assessed as increase in let7a mRNA level by qPCR analysis. Format: functional, cell-based. (Quantitative PCR measures a nucleic acid by following its amplification.)
Experiment [10] has as its system A549. The experiment is described as follows: cells. Particulars: Homo sapiens, A549, 48 h.

Sequence of DNA topoisomerase 2-alpha (P11388 whole entry): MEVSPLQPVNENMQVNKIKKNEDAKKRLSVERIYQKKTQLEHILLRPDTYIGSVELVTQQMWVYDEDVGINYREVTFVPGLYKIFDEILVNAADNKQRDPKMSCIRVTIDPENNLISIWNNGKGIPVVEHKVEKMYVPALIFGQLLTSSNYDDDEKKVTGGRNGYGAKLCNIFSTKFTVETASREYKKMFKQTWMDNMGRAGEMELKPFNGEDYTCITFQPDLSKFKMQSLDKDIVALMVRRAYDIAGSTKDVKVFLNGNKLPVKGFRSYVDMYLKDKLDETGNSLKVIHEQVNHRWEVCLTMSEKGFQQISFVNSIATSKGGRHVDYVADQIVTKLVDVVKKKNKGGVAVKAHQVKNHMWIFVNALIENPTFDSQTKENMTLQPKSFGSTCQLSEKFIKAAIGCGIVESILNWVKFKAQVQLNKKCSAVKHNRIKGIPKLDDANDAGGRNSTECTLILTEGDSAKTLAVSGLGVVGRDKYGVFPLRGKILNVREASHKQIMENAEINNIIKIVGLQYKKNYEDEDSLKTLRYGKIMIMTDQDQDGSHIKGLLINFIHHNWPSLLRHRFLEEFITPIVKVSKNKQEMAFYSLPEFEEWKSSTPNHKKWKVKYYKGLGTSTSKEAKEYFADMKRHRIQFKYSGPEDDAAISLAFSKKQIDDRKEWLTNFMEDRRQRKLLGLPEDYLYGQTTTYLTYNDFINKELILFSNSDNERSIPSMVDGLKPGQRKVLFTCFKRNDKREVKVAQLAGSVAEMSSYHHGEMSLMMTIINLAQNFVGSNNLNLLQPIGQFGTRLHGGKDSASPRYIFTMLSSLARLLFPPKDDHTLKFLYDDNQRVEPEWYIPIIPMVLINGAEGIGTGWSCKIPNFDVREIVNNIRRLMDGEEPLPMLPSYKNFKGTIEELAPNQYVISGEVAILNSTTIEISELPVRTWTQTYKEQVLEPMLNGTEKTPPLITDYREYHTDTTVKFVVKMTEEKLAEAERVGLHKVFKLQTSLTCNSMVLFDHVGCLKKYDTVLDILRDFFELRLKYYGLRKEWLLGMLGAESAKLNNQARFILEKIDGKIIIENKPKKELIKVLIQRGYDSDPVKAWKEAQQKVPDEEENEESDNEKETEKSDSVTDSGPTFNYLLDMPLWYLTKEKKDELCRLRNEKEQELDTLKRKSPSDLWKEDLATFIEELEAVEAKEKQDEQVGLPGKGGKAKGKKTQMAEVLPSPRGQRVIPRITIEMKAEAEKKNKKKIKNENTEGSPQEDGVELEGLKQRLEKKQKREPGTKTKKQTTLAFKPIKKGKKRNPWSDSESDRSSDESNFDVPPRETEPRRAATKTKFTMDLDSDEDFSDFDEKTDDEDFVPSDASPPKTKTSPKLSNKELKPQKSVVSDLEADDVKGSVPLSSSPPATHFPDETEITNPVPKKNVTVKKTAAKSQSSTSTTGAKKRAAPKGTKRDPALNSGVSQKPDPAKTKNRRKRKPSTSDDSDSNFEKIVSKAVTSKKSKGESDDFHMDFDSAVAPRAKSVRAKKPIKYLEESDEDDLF

In general, IC50 refers to the midpoint of a concentration-inhibition curve. Low values mean inhibition by little substance, high ones a need for much substance. For `COc1ccc(-c2ccc3ccc(OCCCCCCC(=O)NO)cc3n2)cc1I`, in experiment [1], the inhibition result was “Active; Observed As More Active Than Etoposide”. Moreover, the inhibition result (in [2]; in the experiment with A549 [4]) was “Active” in each case. Further, in the experiment on Supercoiled DNA, the outcome was inactive. The IC50 against Histone deacetylase 1 is 36.2 nM; at Histone deacetylase 8, above 500 nM; in the experiment on NCI-H1299, 1630 nM; with MDA-MB-231 [3], 1550 nM; in the experiment with MCF7 it was 3020 nM; with HT-29, 1860 nM. 1970 nM corresponded to half-maximal inhibition in the experiment on A549 [10] (IC50). Further, the Activity entry in the experiment with A549 [5] was “Active; Exhibited Potent Effect”; in the experiment on A549 [8] it was “Not active; Result Signifies That Cell Death Induced Via Mitochondrial-Independent Pathways”. The result in the experiment on A549 [6], in the experiment with A549 [7] and in the experiment on MDA-MB-231 [9] was Active.
Take `COc1ccc(-c2ccc3cc(OCCCCCC(=O)NO)ccc3n2)cc1`: the inhibition entry in [1] is reported as “Active; Observed As More Active Than Etoposide”. Further, the inhibition result (in experiment [2]; with A549 [4]) was “Active” each time. In addition, the outcome with Supercoiled DNA was inactive. For the same compound, the IC50 was 11.9 nM against Histone deacetylase 1; above 500 nM at Histone deacetylase 8; 1680 nM with NCI-H1299; 879 nM in the experiment with MDA-MB-231 [3]; 1980 nM in the experiment on MCF7; 5760 nM with HT-29. The same compound had an IC50 in the experiment with A549 [10] of 702 nM. The Activity entry with A549 [5] is recorded as “Active; Exhibited Commendable Decrease In Mass Of 3D Sphere”; in the experiment with A549 [8], “Active; Result Signifies That Cell Death Induced Via Mitochondrial-Dependent Pathways”. Moreover, the outcome in the experiment on A549 [6], with A549 [7] and with MDA-MB-231 [9] was Active.
